Measurements taken from ChEMBL document CHEMBL5352474, “Synthesis and in vitro antileishmanial activity of alkylene-linked nitrofurantoin-triazole hybrids” (Eur J Med Chem, 2023).

How the values were obtained:
[1] = tested on: Leishmania major; experiment: Antileishmanial activity against Leishmania major IR-173 amastigote infected in human THP-1 cells assessed as static activity by measuring inhibition of parasite growth incubated for 72 hrs by resazurin dye based assay; type: functional, organism-based; conditions: IR-173, THP-1, 72 h
[2] = tested on: Leishmania donovani; experiment: Antileishmanial activity against Leishmania donovani 9515 promastigotes assessed as inhibition of parasite growth incubated for 48 hrs by resazurin dye based assay; type: functional, organism-based; conditions: Leishmania donovani, 9515, 48 h
[3] = tested on: Leishmania donovani; experiment: Antileishmanial activity against Leishmania donovani 9515 amastigote infected in human THP-1 cells assessed as static activity by measuring inhibition of parasite growth incubated for 72 hrs by resazurin dye based assay; type: functional, organism-based; conditions: Leishmania donovani, 9515, THP-1, 72 h
[4] = tested on: Leishmania major; experiment: Antileishmanial activity against Leishmania major IR-173 promastigotes assessed as inhibition of parasite growth incubated for 48 hrs by resazurin dye based assay; type: functional, organism-based; conditions: IR-173, 48 h
[5] = Cytotoxicity against HEK293 cells assessed as inhibition of cell growth incubated for 48 hrs by resazurin dye based assay; type: toxicity; conditions: human
[6] = Selectivity index, ratio of IC50 for cytotoxicity against HEK293 cells to IC50 for antileishmanial activity against Leishmania major IR-173 promastigotes; type: toxicity, cell-based; conditions: human, read-out: Ratio IC50
[7] = tested on: Leishmania major; experiment: Leishmanicidal activity against Leishmania major IR-173 amastigote infected in human THP-1 cells incubated for 72 hrs by resazurin dye based analysis; type: functional, organism-based; conditions: IR-173, THP-1, 72 h
[8] = tested on: Leishmania donovani; experiment: Leishmanicidal activity against Leishmania donovani 9515 amastigote infected in human THP-1 cells incubated for 72 hrs by resazurin dye based analysis; type: functional, organism-based; conditions: Leishmania donovani, 9515, THP-1, 72 h
[9] = Selectivity index, ratio of IC50 for cytotoxicity against HEK293 cells to IC50 for antileishmanial activity against Leishmania donovani 9515 promastigotes; type: toxicity, cell-based; conditions: human, read-out: Ratio IC50
[10] = in vitro; conditions: human, THP-1 cells
[11] = in vitro; conditions: monkey, Vero cells
Description: Selectivity index, ratio of IC50 for cytotoxicity against African green monkey Vero cells to IC50 for antileishmanial activity against Leishmania major IR-173 amastigote infected in human THP-1 cells assessed as static activity

[12] = Selectivity index, ratio of IC50 for antileishmanial activity against Leishmania major IR-173 promastigotes to IC50 for antileishmanial activity against Leishmania major IR-173 amastigote infected in human THP-1 cells assessed as static activity; type: functional
[13] = in vitro; conditions: African green monkey, Vero cells
[14] = Selectivity index, ratio of IC50 for antileishmanial activity against Leishmania major IR-173 promastigotes to IC50 for leishmanicidal activity against Leishmania major IR-173 amastigote infected in human THP-1 cells; type: functional
[15] = Selectivity index, ratio of IC50 for cytotoxicity against African green monkey Vero cells to IC50 for leishmanicidal activity against Leishmania major […] amastigote infected in human THP-1 cells; type: toxicity, cell-based; conditions: read-out: Ratio IC50

Row | Compound | IC50 [1] [µM] | IC50 [2] [µM] | IC50 [3] [µM] | IC50 [4] [µM] | IC50 at 48 h [5] [µM] | selectivity ratio [6] | IC50 [7] [µM] | IC50 [8] [µM] | selectivity ratio [9] | IC50 at 48 h [10] [µM] | selectivity ratio [11] | Ratio IC50 [12] | IC50 at 48 h [13] [µM] | Ratio IC50 [14] | selectivity ratio [15]
1 | O=C1CN(/N=C/c2ccc([N+](=O)[O-])o2)C(=O)N1CCCCCCn1cc(-c2ccc(F)cc2)nn1 | > 10 | > 10 | > 10 | 0.22 | 8.97 | 40 | > 10 | > 10 |  |  |  |  |  |  | 
2 | CCCCCc1ccc(-c2cn(CCCCCCN3C(=O)CN(/N=C/c4ccc([N+](=O)[O-])o4)C3=O)nn2)cc1 | > 10 | 0.05 | > 10 | 2.19 |  |  | > 10 | > 10 |  |  |  |  |  |  | 
3 | COc1ccc(-c2cn(CCCCCN3C(=O)CN(/N=C/c4ccc([N+](=O)[O-])o4)C3=O)nn2)cc1 | > 10 | > 10 | > 10 | 0.5 | 22.7 | 45 | > 10 | > 10 |  |  |  |  |  |  | 
4 | O=C1CN(/N=C/c2ccc([N+](=O)[O-])o2)C(=O)N1CCCCCCn1cc(CSc2ccccc2)nn1 | > 10 | 0.06 | > 10 | 2.75 | 19.6 | 7 | > 10 | > 10 | 327 |  |  |  |  |  | 
5 | O=C1CN(/N=C/c2ccc([N+](=O)[O-])o2)C(=O)N1CCCCCn1cc(-c2cc(C(F)(F)F)cc(C(F)(F)F)c2)nn1 | > 10 | > 10 | > 10 | > 10 | 17.7 |  | > 10 | > 10 |  |  |  |  |  |  | 
6 | CCCCCCc1cn(CCCCCCN2C(=O)CN(/N=C/c3ccc([N+](=O)[O-])o3)C2=O)nn1 | > 10 | 0.48 | > 10 | 5.3 | 83.4 | 16 | > 10 | > 10 | 174 |  |  |  |  |  | 
7 | CCCCCCc1cn(CCCCCN2C(=O)CN(/N=C/c3ccc([N+](=O)[O-])o3)C2=O)nn1 | > 10 | 0.61 | > 10 | 1.5 | 65.9 | 44 | > 10 | > 10 | 108 |  |  |  |  |  | 
8 | O=C1CN(/N=C/c2ccc([N+](=O)[O-])o2)C(=O)N1CCCn1cc(-c2ccc(F)cc2)nn1 | > 10 | > 10 | > 10 | 0.74 | > 100 | > 135 | > 10 | > 10 |  |  |  |  |  |  | 
9 | CCCCCCc1cn(CCCN2C(=O)CN(/N=C/c3ccc([N+](=O)[O-])o3)C2=O)nn1 | 0.84 | > 10 | > 10 | 0.48 | 16.5 | 34 | > 10 | > 10 |  | 38.5 | 119 | 0.7 | > 100 |  | 
10 | O=C1CN(/N=C/c2ccc([N+](=O)[O-])o2)C(=O)N1CCCn1cc(-c2cc(C(F)(F)F)cc(C(F)(F)F)c2)nn1 | > 10 | 1.2 | > 10 | 0.67 | 30.6 | 46 | > 10 | > 10 | 26 |  |  |  |  |  | 
11 | CCCCCc1cn(CCCN2C(=O)CN(/N=C/c3ccc([N+](=O)[O-])o3)C2=O)nn1 | 0.61 | > 10 | > 10 | 0.55 | 35.6 | 74 | > 10 | > 10 |  | 50.6 | 164 | 0.8 | > 100 |  | 
12 | Cc1ccc(-c2cn(CCCCCN3C(=O)CN(/N=C/c4ccc([N+](=O)[O-])o4)C3=O)nn2)cc1 | > 10 | > 10 | > 10 | 1.86 | 13.9 | 8 | > 10 | > 10 |  |  |  |  |  |  | 
13 | CCCCCCCCc1cn(CCCCCN2C(=O)CN(/N=C/c3ccc([N+](=O)[O-])o3)C2=O)nn1 | > 10 | > 10 | > 10 | > 10 | 28.6 |  | > 10 | > 10 |  |  |  |  |  |  | 
14 | CCCCCc1ccc(-c2cn(CCCCCN3C(=O)CN(/N=C/c4ccc([N+](=O)[O-])o4)C3=O)nn2)cc1 | > 10 | > 10 | > 10 | > 10 | 9.73 |  | > 10 | > 10 |  |  |  |  |  |  | 
15 | O=C1CN(/N=C/c2ccc([N+](=O)[O-])o2)C(=O)N1CCCCCn1cc(-c2ccc(F)cc2)nn1 | > 10 | > 10 | > 10 | 0.98 | 37.2 | 40 | > 10 | > 10 |  |  |  |  |  |  | 
16 | O=C1CN(/N=C/c2ccc([N+](=O)[O-])o2)C(=O)N1CCCCCn1cc(CSc2ccccc2)nn1 | > 10 | 0.01 | > 10 | 1.7 | 87.9 | 52 | > 10 | > 10 | 8790 |  |  |  |  |  | 
17 | O=C1CN(/N=C/c2ccc([N+](=O)[O-])o2)C(=O)N1CCCCCCn1cc(-c2cc(C(F)(F)F)cc(C(F)(F)F)c2)nn1 | > 10 | 5.35 | > 10 | 0.8 |  |  | > 10 | > 10 |  |  |  |  |  |  | 
18 | COc1ccc(-c2cn(CCCCCCN3C(=O)CN(/N=C/c4ccc([N+](=O)[O-])o4)C3=O)nn2)cc1 | > 10 | 0.23 | > 10 | 0.59 | 5.39 | 9 | > 10 | > 10 | 23 |  |  |  |  |  | 
19 | O=C1CN(/N=C/c2ccc([N+](=O)[O-])o2)C(=O)N1CCCn1cc(CSc2ccccc2)nn1 | > 10 | > 10 | > 10 | 0.67 | 37.4 | 56 | 3.98 | 9.9 |  | 6.65 |  |  | 3.86 | 0.2 | 1
20 | Cc1ccc(-c2cn(CCCCCCN3C(=O)CN(/N=C/c4ccc([N+](=O)[O-])o4)C3=O)nn2)cc1 | > 10 | 0.98 | > 10 | 0.66 | 31.1 | 47 | > 10 | > 10 | 32 |  |  |  |  |  | 
21 | CCCCCc1cn(CCCCCCN2C(=O)CN(/N=C/c3ccc([N+](=O)[O-])o3)C2=O)nn1 | > 10 | > 10 | > 10 | 0.27 | 15.5 | 57 | > 10 | > 10 |  |  |  |  |  |  | 
22 | CCCCc1cn(CCCCCCN2C(=O)CN(/N=C/c3ccc([N+](=O)[O-])o3)C2=O)nn1 | > 10 | > 10 | > 10 | 1.19 | 44.5 | 37 | > 10 | > 10 |  |  |  |  |  |  | 
23 | CCCCCCCCc1cn(CCCCCCN2C(=O)CN(/N=C/c3ccc([N+](=O)[O-])o3)C2=O)nn1 | > 10 | 0.11 | > 10 | 2.62 | 50.3 | 19 | > 10 | > 10 | 457 |  |  |  |  |  | 
24 | CCCCCCCCc1cn(CCCN2C(=O)CN(/N=C/c3ccc([N+](=O)[O-])o3)C2=O)nn1 | > 10 | > 10 | > 10 | 0.73 | 11.5 | 16 | > 10 | > 10 |  |  |  |  |  |  | 
25 | CCCCCc1ccc(-c2cn(CCCN3C(=O)CN(/N=C/c4ccc([N+](=O)[O-])o4)C3=O)nn2)cc1 | > 10 | > 10 | > 10 | > 10 | 79.8 |  | > 10 | > 10 |  |  |  |  |  |  | 
26 | C[C@@H]1[C@H](O)[C@@H](C)/C=C/C=C/C=C/C=C/C=C/C=C/C=C/[C@H](O[C@@H]2O[C@H](C)[C@@H](O)[C@H](N)[C@@H]2O)C[C@@H]2O[C@](O)(C[C@@H](O)C[C@@H](O)[C@H](O)CC[C@@H](O)C[C@@H](O)CC(=O)O[C@H]1C)C[C@H](O)[C@H]2C(=O)O [AMPHOTERICIN B] | 0.03 |  |  |  |  |  |  |  |  |  |  |  |  |  | 
27 | CC[C@H]1CN2CCc3cc(OC)c(OC)cc3[C@@H]2C[C@@H]1C[C@H]1NCCc2cc(OC)c(OC)cc21 [EMETINE] |  |  |  |  | 0.01 |  |  |  |  |  |  |  |  |  | 
